Legend:
[1] = test system: HIV-1; assay: Study 202 Phase 2b: virologic response (HIV-1 RNA <50 copies/mL, FDA Snapshot); format: in vivo, human; conditions: EFV + FTC/TDF
Excerpt: Subjects with a history of HIV-2, hepatitis B and/or C, cirrhosis of the liver or any known active or chronic active liver disease were excluded from the study.
The primary efficacy endpoint was virologic response at Week 24, defined as HIV-1 RNA<50 copies/mL using the FDA Snapshot Algorithm.

[2] = test system: MCP-1, sCD14, hs-CRP, IL-6, D-dimer, fibrinogen; assay: Study 202: biomarkers of inflammation and immune function; format: in vivo, human; conditions: EFV 600 mg
Protocol: As an exploratory analysis, levels of inflammation biomarkers MCP-1, sCD14, high sensitivity C-reactive protein [hs-CRP], interleukin-6 [IL-6], D-dimer, and fibrinogen) were measured. Baseline values and changes from baseline at Week 24 and Week 48 of MCP-1, sCD14, hs-CRP, IL-6, D-dimer, and fibrinogen are summarized in Table 25.
The sCD14 samples were originally analyzed in 2 separate batches: Batch 1 included samples leading up to the Week 24 primary analysis and Batch 2 included Week 32 and Week 48 (end of study) samples. A repeat analysis of archived samples all analyzed in one batch was conducted for consistency in analysis across time points. To control for the effects of covariates, a linear mixed-model repeated-measures analysis was conducted on the changes from baseline in sCD14 (analysis dated September 2013).

[3] = Study 202: treatment-emergent laboratory abnormalities (DAIDS grades; CPK, ALT, AST, bilirubin); format: in vivo; conditions: All CVC (N = 115), EFV (N = 28)
Excerpt: The number of subjects with graded treatment-emergent laboratory abnormalities in selected liver parameters of interest is shown in Table 34. No Grade 4 ALT or AST elevations were observed. Except for one Grade 3 AST elevation, all ALT and AST elevations were Grade 1 or Grade 2. […] All abnormalities in bilirubin were Grade 1 or Grade 2. […]

SMILES: O=C1Nc2ccc(Cl)cc2[C@@](C#CC2CC2)(C(F)(F)F)O1 [EFV, efavirenz, reference compound]
- Virologic success (HIV-1 RNA <50 copies/mL) ([1]; Week 24): 71%
- Virologic success (HIV-1 RNA <50 copies/mL) ([1]; Week 48): 50%
- D-dimer baseline value, mean [2]: 163 ng/mL
- D-dimer baseline value, median [2]: 150 ng/mL
- D-dimer change from baseline at Week 24, mean [2]: -53 ng/mL
- D-dimer change from baseline at Week 24, median [2]: -26 ng/mL
- D-dimer change from baseline at Week 48, mean [2]: -34 ng/mL
- D-dimer change from baseline at Week 48, median [2]: 0.0 ng/mL
- Fibrinogen baseline value, mean [2]: 258 mg/dL
- Fibrinogen baseline value, median [2]: 245 mg/dL
- Fibrinogen change from baseline at Week 24, mean [2]: -28 mg/dL
- Fibrinogen change from baseline at Week 24, median [2]: -31 mg/dL
- Fibrinogen change from baseline at Week 48, mean [2]: -30 mg/dL
- Fibrinogen change from baseline at Week 48, median [2]: -22 mg/dL
- IL-6 baseline value, mean [2]: 13.81 pg/mL
- IL-6 baseline value, median [2]: 1.90 pg/mL
- IL-6 change from baseline at Week 24, mean [2]: -8.72 pg/mL
- IL-6 change from baseline at Week 24, median [2]: 0.00 pg/mL
- IL-6 change from baseline at Week 48, mean [2]: -13.11 pg/mL
- IL-6 change from baseline at Week 48, median [2]: 0.00 pg/mL
- MCP-1 baseline value, mean [2]: 139 pg/mL
- MCP-1 baseline value, median [2]: 122 pg/mL
- MCP-1 change from baseline at Week 24, mean [2]: -44 pg/mL
- MCP-1 change from baseline at Week 24, median [2]: -17 pg/mL
- MCP-1 change from baseline at Week 48, mean [2]: 4.2 pg/mL
- MCP-1 change from baseline at Week 48, median [2]: 33.6 pg/mL
- hs-CRP baseline value, mean [2]: 0.81 mg/dL
- hs-CRP baseline value, median [2]: 0.14 mg/dL
- hs-CRP change from baseline at Week 24, mean [2]: -0.46 mg/dL
- hs-CRP change from baseline at Week 24, median [2]: -0.01 mg/dL
- hs-CRP change from baseline at Week 48, mean [2]: -0.71 mg/dL
- hs-CRP change from baseline at Week 48, median [2]: -0.03 mg/dL
- sCD14 (original values) baseline value, mean [2]: 2e+06 pg/mL
- sCD14 (original values) baseline value, median [2]: 2.02e+06 pg/mL
- sCD14 (original values) change from baseline at Week 12, mean [2]: 90000 pg/mL
- sCD14 (original values) change from baseline at Week 12, median [2]: 180000 pg/mL
- sCD14 (original values) change from baseline at Week 24, mean [2]: 230000 pg/mL
- sCD14 (original values) change from baseline at Week 24, median [2]: 130000 pg/mL
- sCD14 (original values) change from baseline at Week 32, mean [2]: 480000 pg/mL
- sCD14 (original values) change from baseline at Week 32, median [2]: 170000 pg/mL
- sCD14 (original values) change from baseline at Week 48, mean [2]: 640000 pg/mL
- sCD14 (original values) change from baseline at Week 48, median [2]: 460000 pg/mL
- Any graded (Grade 1-4) treatment-emergent laboratory abnormality, n subjects [3]: 25
- Laboratory abnormality, worst Grade 1, n subjects [3]: 13
- Laboratory abnormality, worst Grade 2, n subjects [3]: 8
- Laboratory abnormality, worst Grade 3 (Any Grade 3 abnormality), n subjects [3]: 3
- Laboratory abnormality, worst Grade 4 (Any Grade 4 abnormality), n subjects [3]: 1
- ALT, worst Grade 1, n subjects ([3]; through Week 48): 2
- ALT, worst Grade 2, n subjects ([3]; through Week 48): 0
- ALT, worst Grade 3, n subjects ([3]; through Week 48): 0
- ALT, worst Grade 4, n subjects ([3]; through Week 48): 0
- AST, worst Grade 1, n subjects ([3]; through Week 48): 3
- AST, worst Grade 2, n subjects ([3]; through Week 48): 0
- AST, worst Grade 3, n subjects ([3]; through Week 48): 0
- AST, worst Grade 4, n subjects ([3]; through Week 48): 0
- Alanine aminotransferase (ALT) abnormality, any grade, n subjects ([3]; through Week 48): 2
- Any Grade 3 or Grade 4 laboratory abnormality, n subjects ([3]; through Week 48): 4
- Aspartate aminotransferase (AST) abnormality, any grade, n subjects ([3]; through Week 48): 3
- Aspartate aminotransferase (AST) increased (Grade 3 or 4), n subjects ([3]; through Week 48): 0
- Bilirubin abnormality, any grade, n subjects ([3]; through Week 48): 1
- Bilirubin, worst Grade 1, n subjects ([3]; through Week 48): 1
- Bilirubin, worst Grade 2, n subjects ([3]; through Week 48): 0
- Bilirubin, worst Grade 3, n subjects ([3]; through Week 48): 0
- Bilirubin, worst Grade 4, n subjects ([3]; through Week 48): 0
- CPK increased, worst Grade 3, n subjects ([3]; through Week 48): 2
- CPK increased, worst Grade 4, n subjects ([3]; through Week 48): 0
- Creatine phosphokinase (CPK) increased (Grade 3 or 4), n subjects ([3]; through Week 48): 2
- Fibrinogen decreased (Grade 3 or 4), n subjects ([3]; through Week 48): 0
- Fibrinogen decreased, worst Grade 3, n subjects ([3]; through Week 48): 0
- Fibrinogen decreased, worst Grade 4, n subjects ([3]; through Week 48): 0
- Hemoglobin decreased (Grade 3 or 4), n subjects ([3]; through Week 48): 0
- Hemoglobin decreased, worst Grade 3, n subjects ([3]; through Week 48): 0
- Hemoglobin decreased, worst Grade 4, n subjects ([3]; through Week 48): 0
- Neutrophils decreased (Grade 3 or 4), n subjects ([3]; through Week 48): 1
- Neutrophils decreased, worst Grade 3, n subjects ([3]; through Week 48): 0
- Neutrophils decreased, worst Grade 4, n subjects ([3]; through Week 48): 1
- Phosphate decreased (Grade 3 or 4), n subjects ([3]; through Week 48): 1
- Phosphate decreased, worst Grade 3, n subjects ([3]; through Week 48): 1
- Phosphate decreased, worst Grade 4, n subjects ([3]; through Week 48): 0
- Prothrombin time/INR increased, worst Grade 3, n subjects ([3]; through Week 48): 0
- Prothrombin time/INR increased, worst Grade 4, n subjects ([3]; through Week 48): 0
- Prothrombin time/international normalized ratio increased (Grade 3 or 4), n subjects ([3]; through Week 48): 0
